Experimental findings from ChEMBL document CHEMBL1145352, “Synthesis and cytotoxic activity of trisubstituted-1,3,5-triazines” (Bioorg Med Chem Lett, 2007) are described below.

Molecules are shown by their SMILES. In brackets after ≈: the same amount, converted by molar mass. Where only a bound is given, the exact number is not on record here.

Assay [1] concerns HL-60. Description: Photocytotoxicity against human HL60 cells irradiated with 1.25 J cm^-2 UVA dose after 72 hrs by MTT assay. To be noted: HL-60, light or radiation study. Type of assay: functional.
Assay [2] concerns Mycobacterium tuberculosis. Description: Antimycobacterial activity against Mycobacterium tuberculosis H37Rv relative to control. Type of assay: functional. Set-up: concentration or dose not given beside the values.
A short description of assay [3]: Inhibition of oxygen evolution rate in spinach chloroplasts. In kind it is functional, Spinacia oleracea.
Assay [4] deals with Mycobacterium tuberculosis. Description: Antimycobacterial activity against Mycobacterium tuberculosis H37Rv. In kind it is functional.
The test system of assay [5] is HL-60. Description: Induction of apoptosis in human HL60 cells irradiated with 2.5 J cm^-2 CUVA assessed as appearance of sub G1 peak at 5 mM after 24 hrs. In kind it is functional.
Assay [6] concerns HL-60. Description: Cell cycle arrest in human HL60 cells irradiated with 2.5 J cm^-2 CUVA assessed as accumulation at G2 phase at 2.5 mM after 72 hrs. Type of assay: functional.
The subject of assay [7] is HL-60. Description: Cell cycle arrest in human HL60 cells irradiated with 2.5 J cm^-2 CUVA assessed as accumulation at G1 phase at 5 mM after 24 hrs. In kind it is functional.
Assay [8] deals with HL-60. Description: Cell cycle arrest in human HL60 cells irradiated with 2.5 J cm^-2 CUVA assessed as accumulation at G1 phase at 5 mM after 72 hrs. In kind it is functional.
The test system of assay [9] is LoVo. Description: Photocytotoxicity against human LoVo cells irradiated with 1.25 J cm^-2 UVA dose after 72 hrs by MTT assay. To be noted: light or radiation study. In kind it is functional.
Assay [10] relates to HL-60. Description: Cell cycle arrest in human HL60 cells irradiated with 2.5 J cm^-2 CUVA assessed as accumulation at S phase at 5 mM after 24 hrs. In kind it is functional.
Assay [11] relates to HL-60. Description: Cell cycle arrest in human HL60 cells irradiated with 2.5 J cm^-2 CUVA assessed as accumulation at G2 phase at 5 mM after 24 hrs. Type of assay: functional.
Assay [12] relates to HL-60. Description: Cell cycle arrest in human HL60 cells irradiated with 2.5 J cm^-2 CUVA assessed as accumulation at G1 phase at 2.5 mM after 48 hrs. Type of assay: functional.
Assay [13] deals with HL-60. Description: Cell cycle arrest in human HL60 cells irradiated with 2.5 J cm^-2 CUVA assessed as accumulation at G1 phase at 2.5 mM after 24 hrs. In kind it is functional.
Assay [14] relates to HL-60. Description: Induction of apoptosis in human HL60 cells irradiated with 2.5 J cm^-2 CUVA assessed as appearance of sub G1 peak at 2.5 mM after 24 hrs. In kind it is functional.
Assay [15] concerns HL-60. Description: Cell cycle arrest in human HL60 cells irradiated with 2.5 J cm^-2 CUVA assessed as accumulation at G2 phase at 5 mM after 48 hrs. Type of assay: functional.
In assay [16] the test system is HL-60. Description: Cell cycle arrest in human HL60 cells irradiated with 2.5 J cm^-2 CUVA assessed as accumulation at S phase at 5 mM after 72 hrs. Type of assay: functional.
The test system of assay [17] is HL-60. Description: Cell cycle arrest in human HL60 cells irradiated with 2.5 J cm^-2 CUVA assessed as accumulation at G2 phase at 5 mM after 72 hrs. In kind it is functional.
Assay [18] relates to HL-60. Description: Induction of apoptosis in human HL60 cells irradiated with 2.5 J cm^-2 CUVA assessed as appearance of sub G1 peak at 2.5 mM after 72 hrs. Type of assay: functional.
For assay [19], the system named is HL-60. Description: Induction of apoptosis in human HL60 cells irradiated with 2.5 J cm^-2 CUVA assessed as appearance of sub G1 peak at 5 mM after 72 hrs. In kind it is functional.
Assay [20] deals with HL-60. Description: Cell cycle arrest in human HL60 cells irradiated with 2.5 J cm^-2 CUVA assessed as accumulation at S phase at 5 mM after 48 hrs. Type of assay: functional.
For assay [21], the system named is HL-60. Description: Induction of apoptosis in human HL60 cells irradiated with 2.5 J cm^-2 CUVA assessed as appearance of sub G1 peak at 2.5 mM after 48 hrs. Type of assay: functional.
Assay [22] has as its system HL-60. Description: Cell cycle arrest in human HL60 cells irradiated with 2.5 J cm^-2 CUVA assessed as accumulation at G2 phase at 2.5 mM after 48 hrs. In kind it is functional.
The test system of assay [23] is HL-60. Description: Cell cycle arrest in human HL60 cells irradiated with 2.5 J cm^-2 CUVA assessed as accumulation at S phase at 2.5 mM after 24 hrs. In kind it is functional.
A further assay has as its system Chlorella vulgaris. Description: Antialgal activity against Chlorella vulgaris assessed as inhibition of chlorophyll production. Type of assay: functional, organism-based.
The test system of assay [24] is HL-60. Description: Cell cycle arrest in human HL60 cells irradiated with 2.5 J cm^-2 CUVA assessed as accumulation at G1 phase at 5 mM after 48 hrs. In kind it is functional.
Assay [25] deals with HL-60. Description: Cell cycle arrest in human HL60 cells irradiated with 2.5 J cm^-2 CUVA assessed as accumulation at S phase at 2.5 mM after 48 hrs. Type of assay: functional.
For assay [26], the system named is HL-60. Description: Cell cycle arrest in human HL60 cells irradiated with 2.5 J cm^-2 CUVA assessed as accumulation at S phase at 2.5 mM after 72 hrs. In kind it is functional.
Assay [27] has as its system LoVo. Description: Photocytotoxicity against human LoVo cells irradiated with 2.5 J cm^-2 UVA dose after 72 hrs by MTT assay. In kind it is functional. The settings on record: light or radiation study.
The subject of assay [28] is HL-60. Description: Induction of apoptosis in human HL60 cells irradiated with 2.5 J cm^-2 CUVA assessed as appearance of sub G1 peak at 5 mM after 48 hrs. In kind it is functional.
Assay [29] has as its system HL-60. Description: Cell cycle arrest in human HL60 cells irradiated with 2.5 J cm^-2 CUVA assessed as accumulation at G2 phase at 2.5 mM after 24 hrs. Type of assay: functional.
Assay [30] concerns HL-60. Description: Cell cycle arrest in human HL60 cells irradiated with 2.5 J cm^-2 CUVA assessed as accumulation at G1 phase at 2.5 mM after 72 hrs. Type of assay: functional.

For the compound `c1ccc(Nc2nc(Nc3ccccc3)nc(Nc3ccccc3)n2)cc1`, the GI50 with HL-60 [1] is over 10 mM. In addition, in assay [2], the Inhibition worked out at 0%. The same compound displayed an IC50 in assay [3] of 1.072 mmol/dm3. For the same compound, the MIC in [4] was over 6.25 µg/mL.

Consider `Oc1nc(O)nc(O)n1`, for which halving of growth with HL-60 [1] (GI50) required 4.3 mM. In addition, the Inhibition in assay [2] is listed as 39%. This compound also returned an IC50 in assay [3] of 0.081 mmol/dm3. The compound also returned a minimal inhibitory concentration (MIC) in [4] of over 6.25 µg/mL.

`CC(=O)Nc1nc(NC(C)=O)nc(NC(C)=O)n1`: the Activity with HL-60 [5] is on record as 21%; with HL-60 [6], 12%; with HL-60 [7] it was 34.2%; in the assay on HL-60 [8], 57.3%; in the assay with HL-60 [10], 54.3%; in the assay on HL-60 [11], 11.1%. The Activity in the assay with HL-60 [12] was 44.5%; in the assay on HL-60 [13], 29.3%; in the assay with HL-60 [14], 13.2%; with HL-60 [15] it was 11.7%; in the assay on HL-60 [16], 37.1%; with HL-60 [17], 6.9%. The Activity in the assay on HL-60 [18] was found to be 40.5%; with HL-60 [19], 46%; with HL-60 [20] it was 38.6%; in the assay with HL-60 [21], 27%; in the assay on HL-60 [22], 10.3%; in the assay on HL-60 [23], 58.4%. Besides, the Activity in the assay with HL-60 [24] is on record as 50.3%; with HL-60 [25], 45%; in the assay with HL-60 [26] it was 43.8%; in the assay on HL-60 [28] it was 26%; in the assay with HL-60 [29], 10.8%; with HL-60 [30], 45.2%. In addition, the GI50 came out at 3.5 mM with LoVo [9], 6.8 mM with HL-60 [1] and 1.89 mM in the assay on LoVo [27]. In [2], this compound showed an Inhibition of 11%. Further, the IC50 in assay [3] came out at 0.148 mmol/dm3; in the assay with Chlorella vulgaris, 0.208 mmol/dm3. The compound further returned an MIC in assay [4] of over 6.25 µg/mL.

In the assay on HL-60 [1], `CNc1nc(NC)nc(NC)n1` showed a GI50 of over 10 mM. This compound displayed an Inhibition in assay [2] of 24%. The figures for the IC50 (in assay [3]; in the assay with Chlorella vulgaris) were 0.118 mmol/dm3 and 0.356 mmol/dm3, respectively. Further, the MIC in assay [4] is over 6.25 µg/mL.

In the case of `COc1ccc(Nc2nc(Nc3ccc(OC)cc3)nc(Nc3ccc(OC)cc3)n2)cc1`, the GI50 with HL-60 [1] is 3.4 mM. Moreover, the Inhibition in assay [2] came out at 72%. The figures for the IC50 (in assay [3]; in the assay with Chlorella vulgaris) were 0.241 mmol/dm3 and 0.079 mmol/dm3, respectively. In assay [4], this compound gave a minimum inhibitory concentration (MIC) of over 6.25 µg/mL.

For the compound `CCN(CC)c1nc(N(CC)CC)nc(N(CC)CC)n1`, the GI50 with LoVo [9] was over 20 mM; in the assay on HL-60 [1], over 10 mM; with LoVo [27], 12.5 mM. In addition, the Inhibition in [2] was 0%. In addition, the IC50 is on record as 0.244 mmol/dm3 in assay [3] and 0.067 mmol/dm3 in the assay on Chlorella vulgaris. Further, the MIC in [4] was over 6.25 µg/mL.

In the case of `CN(C)c1nc(N(C)C)nc(N(C)C)n1` [ALTRETAMINE], the GI50 is 17.2 mM in the assay on LoVo [9], over 10 mM in the assay with HL-60 [1] and 10.3 mM with LoVo [27]. Moreover, the Inhibition in [2] was found to be 28%. Besides, the IC50 in [3] is listed as 0.486 mmol/dm3; in the assay on Chlorella vulgaris, 0.125 mmol/dm3. The compound further gave an MIC in assay [4] of over 6.25 µg/mL.

In the case of `CN(C)C(=O)Nc1ccc(Cl)c(Cl)c1` [DCMU], the IC50 in assay [3] was 0.0019 mmol/dm3; in the assay on Chlorella vulgaris, 0.0073 mmol/dm3.

Compound `CO[C@H]1/C=C/O[C@@]2(C)Oc3c(C)c(O)c4c(O)c(c(/C=N/N5CCN(C)CC5)c(O)c4c3C2=O)NC(=O)/C(C)=C\C=C\[C@H](C)[C@H](O)[C@@H](C)[C@@H](O)[C@@H](C)[C@H](OC(C)=O)[C@@H]1C` [RIFAMPIN] yielded an Inhibition in [2] of 100%. The minimal inhibitory concentration (MIC) in assay [4] was found to be 0.125 µg/mL (≈ 0.152 µM).
